Each structure is given as a SMILES string.

In the assay the test system is HIV-1 IIIB. Briefly: Anti-HIV-1 activity in MT-2 cells, virus-induced cytopathic effect (CellTiter-Glo). Format: cell-based. How it is done:
MT-2 cells were maintained in RPMI-1640 medium supplemented with antibiotics and 10% fetal bovine serum (FBS). MT-2 cells were infected with HIV-1 IIIB at a multiplicity of infection (moi) of 0.01 and added to 96-well plates with serial dilutions of tested compounds at a density of 20,000 cells/well. […] Activity against NRTI-resistant mutants was determined in parallel with wild-type control virus and fold change in EC50 was calculated.

As a reminder, the EC50 is the concentration needed to bring the measured effect to its halfway point. Read a high EC50 as a need for much substance. Turning to `CCOC(=O)[C@H](C)N[P@](=O)(CO[C@@H]1C=C(F)[C@H](n2cnc3c(N)ncnc32)O1)Oc1ccccc1` (single isomer, unassigned) [Prodrug], the EC50 (Human immunodeficiency virus 1, MT2, 120 h, MT-2 cells, HIV-1 IIIB, 5-day incubation, mean ± SD) was 150 ± 40 nM. In addition, the “more potent than the parent compound” value (MT-2) was 71 fold.

The record behind these values is patent publication US20100093667A1, “SALTS OF HIV INHIBITOR COMPOUNDS” (Gilead Sciences, Inc., priority 2008, published 2010).
